This note sets out measurements from patent publication US7947270B2, “Removing dental plaque with krill enzymes” (Arcimboldo AB, priority 1992, dated 2011).

Where a SMILES comes first, the peptide text is derived from it.

Data set [1] concerns the target krill-derived multifunctional hydrolase (antarctic krill). Kind of data set: cell-based or functional assay.
In data set [2] the test system is krill-derived multifunctional hydrolase. Kind of data set: protease inhibitors at pH 9.5 against hydrolase preparations. It is filed as biochemical, antarctic krill. On the procedure: The effectiveness of three protease inhibitors was tested at pH 9.5 against the three hydrolase preparations.
In data set [3] the test system is krill-derived multifunctional hydrolase (Prep-8). Kind of data set: protease inhibitors against Prep-8 at pH 7.5. It is filed as biochemical, antarctic krill. On the procedure:
The effectiveness of other protease inhibitors against Prep-8 was tested in a 0.1 M Tris-HCl buffer pH 7.5. Benzoyl-val-gly-arg-p-nitroanilide (“ARG-p-NA”) and succinyl-ala-pro-phe-p-nitroanilide (Phe-pNA) were used as substrates.

The test system of data set [4] is krill-derived multifunctional hydrolase (antarctic krill), Prep-3 (eluted at pH 3), SEQ ID NO. 1 (N-terminal sequence). Kind of data set: Km determination, krill-derived multifunctional hydrolase Prep-3. It is filed as biochemical. Conditions: 0.1 M CAPS buffer, 2 mM Ca++, pH 9.5. As for the experimental part: (§1) The krill-derived multifunctional hydrolase was purified by the protocol described above in Example 1C. Three preparations the krill-derived multifunctional hydrolase were prepared. The three preparations differed only in that the krill multifunctional hydrolase was eluted from the trypsin inhibitor gel with buffer at pH 3, pH 8, and pH 11, respectively. These preparations shall be termed “Prep-3,” “Prep-8,” and “Prep-11.” These preparations were dissolved in water to a concentration of 6 mg/ml.
(§2) The SDS bands were electroblotted onto PVDF membranes and sequenced through 25 cycles of Edman degradation. See, Matsudaira, J. Biol. Chem., 262: 10035-10038, 1987. […] Accordingly, it is clear that all three preparations are homogenous, although each is micro-heterogeneous at position 5. The proteolytic activity of each of the three preparations was tested against substrate benzoyl-val-gly-arg-p-nitroaniline. Hydrolysis of this substrate can be monitored at […], reflecting the release of p-nitroaniline. The profile for Prep-3 (shown with filled squares), Prep-8 (shown with open diamonds) and Prep-11 (shown with filled diamonds) are identical.

The subject of data set [5] is krill-derived multifunctional hydrolase (antarctic krill), Prep-8 (eluted at pH 8), SEQ ID NO. 1 (N-terminal sequence). Kind of data set: Km determination, krill-derived multifunctional hydrolase Prep-8. Particulars: 0.1 M CAPS buffer, 2 mM Ca++, pH 9.5. It is filed as biochemical. On the procedure: as §1, §2
The subject of data set [6] is krill-derived multifunctional hydrolase (antarctic krill), Prep-11 (eluted at pH 11), SEQ ID NO. 1 (N-terminal sequence). Kind of data set: Km determination, krill-derived multifunctional hydrolase Prep-11. It is filed as biochemical. Particulars: 0.1 M CAPS buffer, 2 mM Ca++, pH 9.5. On the procedure: as §1, §2
The subject of another data set is HL60 cells. Kind of data set: in vitro binding of HL60 cells to endothelial cells. It is filed as cell-based, human. On the procedure: Endothelial cells were first passaged onto 96 well plates at a given concentration. The endothelial cells used in the experiment are described in Edgell et al., Proc. Natl. Acad. Sci. USA (1983) 80:3734. The cells were incubated at 37° C. under a DMEM cell culture medium containing 10% fetal calf serum and under a 5% CO2 atmosphere. Then, the medium was removed and replaced with 100 μl of a suspension of 200,000 HL60 cells (a […], available from the European Cell Culture Bank under ECACC Accession No. 85011431) in RPMI medium containing 10% fetal calf serum. The cells were incubated for 30 minutes. After this, the medium was removed and the adherent cells were washed two times with DMEM medium. The relative adherence of the HL60 cells was measured by measuring the difference in optical density at 450 nm between the plates on which the cells were co-incubated and plates having endothelial cells alone.
The effect of TNFα was measured by adding TNFα at 1500 units/ml to the endothelial cells 4 hours before the incubation with HL60 cells. The effect of antibody to E-selectin was measured by adding 25 μg/ml of monoclonal antibody BBAZ (R&D Systems Europe, Oxford, England) to the HL60 cells. The results of the experiments were: […]
The number of HL60 cells was determined by subtracting the cell numbers for control plates having only endothelial cells. […]

The test system of data set [7] is mice with P388 murine leukemia. Kind of data set: Toxicity on mice with s.c. implanted P388 murine leukemia. It is filed as in vivo. Conditions: all mice in doxorubicin group except those receiving the lowest dosage.
For data set [8], the system named is mice with s.c. implanted P388 murine leukemia. Kind of data set: toxicity on mice with P388 murine leukemia.
Setting [9] is: Prep-11, pH 9.5, inhibitor 1 μM.
[10] abbreviates: substrate Arg-pNA, inhibitor 0.2 μM, pH 7.5.
Setting [11] is: substrate Phe-pNA, inhibitor 0.2 μM, pH 7.5.
[12] abbreviates: substrate Arg-pNA, inhibitor 10 μM, pH 7.5.
[13] abbreviates: substrate Phe-pNA, inhibitor 10 μM, 0.1 M Tris-HCl pH 7.5.

Chain of krill-derived multifunctional hydrolase (antarctic krill) (P86599 1-25): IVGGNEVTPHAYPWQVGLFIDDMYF

As for Eglin C fragment (peptide), the Activity remaining, % of Prep-8 with 8.4 µM inhibitor, substrate Phe-pNA, pH 7.5 (% activity remaining) in data set [1] worked out at 100.
For Bovine pancreatic trypsin inhibitor, the “% activity remaining” value in data set [2] (Prep-3, pH 9.5, inhibitor 1 μM) came to 2%; in data set [2] (Prep-8, pH 9.5, inhibitor 1 μM), 1%; in data set [2] (setting [9]), 1%.
On to “α-proteinase inhibitor: protease inhibitor”, for which the “Activity remaining, %” value in data set [3] (setting [10]) and in [3] (setting [11]) was 0% in each case.
The term Km denotes the substrate concentration at which the rate is half of its maximum. With `CC(C)[C@H](NC(=O)c1ccccc1)C(=O)NCC(=O)N[C@@H](CCCNC(=N)N)C(=O)Nc1ccc([N+](=O)[O-])cc1` [benzoyl-pal-gly-arg-p-nitroanilide] (HELM PEPTIDE1{[O=C(c1ccccc1)[*:2]].V.G.R.[O=[N+]([O-])c1ccc(N[*:1])cc1]}$$$$V2.0), the values for the Km in data set [4], in data set [5] and in [6] were 210 ± 8 µM, 210 ± 8 µM and 230 ± 13 µM, respectively.
`C[C@H](NC(=O)CCC(=O)O)C(=O)N[C@@H](C)C(=O)N1CCC[C@H]1C(=O)N[C@@H](Cc1ccccc1)C(=O)Nc1ccc([N+](=O)[O-])cc1` [succinyl-ala-ala-pro-phe-p-nitroanilide] (HELM PEPTIDE1{[O=C(O)CCC(=O)[*:2]].A.A.P.F.[O=[N+]([O-])c1ccc(N[*:1])cc1]}$$$$V2.0): the Km was found to be 260 ± 50 µM in data set [4], 270 ± 50 µM in data set [5] and 270 ± 40 µM in data set [6].
TNFα: the HL60 cell number in the data set with HL60 cells (Expt 2: endothelial cells pretreated with TNFα) is reported as 43,990. The “Absorbance (increase over endothelial cells alone)” value with HL60 cells (Expt 2: endothelial cells pretreated with TNFα 1500 units/ml 4 hours) is listed as 0.444.
For the molecule `COc1cccc2c1C(=O)c1c(O)c3c(c(O)c1C2=O)C[C@@](O)(C(=O)CO)C[C@@H]3O[C@H]1C[C@H](N)[C@H](O)[C@H](C)O1` [DOX, doxorubicin], in data set [7], the “weight loss and death of mice” value is “lost weight and died”. Further, in data set [8] (2.5 mg/kg i.p. daily, 9 consecutive days), the Toxic death is 6/6. Moreover, the “death and weight loss (summary)” value in data set [8] (all doses) is “all mice in the doxorubicin group, except for those receiving the lowest dosage, lost weight and died”.
As to Anti-Thrombin III [listing 1 of 2 here], in data set [1], the Activity remaining, % of Prep-8 with 0.2 µM inhibitor, substrate Arg-pNA, pH 7.5 (% activity remaining) was found to be 4 and the Activity remaining, % of Prep-8 with 0.2 µM inhibitor, substrate Phe-pNA, pH 7.5 (% activity remaining) worked out at 2.
For Anti-Thrombin III [listing 2 of 2 here], the “Activity remaining, %” value was 4% in [3] (setting [10]) and 2% in data set [3] (setting [11]).
As for `CC(C)C[C@H](NC(=O)[C@@H](NC(=O)N[C@@H](Cc1ccccc1)C(=O)O)[C@@H]1CCN=C(N)N1)C(=O)N[C@H](C=O)Cc1ccccc1` [Chymostatin], the “% activity remaining” value in data set [2] (Prep-3, pH 9.5, inhibitor 1 μM) is reported as 0%; in [2] (Prep-8, pH 9.5, inhibitor 1 μM), 0%; in data set [2] (setting [9]), 0%.
Take `CC(C)C[C@H](NC(=O)N[C@H](C(=O)N[C@@H](CCC(N)=O)C(=O)N[C@@H](C)C=O)[C@@H]1CCNC(=N)N1)C(=O)O` [Elastatinal]: the “Activity remaining, %” value in data set [3] (setting [12]) and in data set [3] (setting [13]) was 100% throughout.
In [1], α-proteinase inhibitor displayed an Activity remaining, % of Prep-8 with 0.2 µM inhibitor, substrate Arg-pNA, pH 7.5 (% activity remaining) of 0 and an Activity remaining, % of Prep-8 with 0.2 µM inhibitor, substrate Phe-pNA, pH 7.5 (% activity remaining) of 0.
Turning to `CC(C)C[C@H](NP(=O)(O)O[C@@H]1O[C@@H](C)[C@H](O)[C@@H](O)[C@H]1O)C(=O)N[C@@H](Cc1c[nH]c2ccccc12)C(=O)O` [Phosphoramidon], the “Activity remaining, %” value in [3] (setting [12]) is 87%; in [3] (setting [13]) it was 94%.

B1: α-anti-chymotrypsin (protein, UniProt P01011 24-423, looked up, species assumed)
Alpha-1-antichymotrypsin: HPNSPLDEENLTQENQDRGTHVDLGLASANVDFAFSLYKQLVLKAPDKNVIFSPLSISTALAFLSLGAHNTTLTEILKGLKFNLTETSEAEIHQSFQHLLRTLNQSSDELQLSMGNAMFVKEQLSLLDRFTEDAKRLYGSEAFATDFQDSAAAKKLINDYVKNGTRGKITDLIKDLDSQTMMVLVNYIFFKAKWEMPFDPQDTHQSRFYLSKKKWVMVPMMSLHHLTIPYFRDEELSCTVVELKYTGNASALFILPDQDKMEEVEAMLLPETLKRWRDSLEFREIGELYLPKFSISRDYNLNDILLQLGIEEAFTSKADLSGITGARNLAVSQVVHKAVLDVFEEGTEASAATAVKITLLSALVETRTIVRFNRPFLMIIVPTDTQNIFFMSKVTNPKQA
Turning to B1, in data set [1], the Activity remaining, % of Prep-8 with 0.2 µM inhibitor, substrate Arg-pNA, pH 7.5 (% activity remaining) was 7 and the Activity remaining, % of Prep-8 with 0.2 µM inhibitor, substrate Phe-pNA, pH 7.5 (% activity remaining) came to 1. Besides, the “Activity remaining, %” value in data set [3] (setting [10]) was determined as 7%. Besides, in [3] (setting [11]), the “Activity remaining, %” value was determined as 1%.
